From patent US9765300B2, “Hepatic cell lines and stem-like cells, methods of making and using the same” (priority 2014, dated 2017)
Each block holds one compound with its values, some of them ahead of it.

How the values were obtained:
Hepa-SC cells = conditions: 10 μM; cited from earlier work
HEPARG® cells = experiment: Comparative study of epigenetic modulators for HEPARG reprogramming to Hepa-SC (toxicity in culture); type: cell-based, human; conditions: even at low concentration, in our culture conditions
Source text: • Step 1: Culturing the parental cells in a culture medium that has been modified in order to eliminate all factors supporting differentiation processes during a 2-passage culture period; • Step 2: Inducing mechanical stress such as shape constraint, onto the cells in order to generate a reprogramming signal toward stemness that should be associated with occurrence of a mechano-transduction signaling in all the cells in a synchronized manner, resulting in expression of a “stem cell signature” at the genome level; • Step 3: Inducing the stability of this stem cell fate by epigenetic mechanism, for instance by exposing the cells to methylation/acetylation modulators such as HDAC molecules. Epigenetic modifications refer to mitotically heritable changes in gene expression that are not coded in the DNA sequence itself (Levenson J M, Sweatt J D., 2005). The chosen epigenetic molecule should neither alter cell proliferation activity nor provoke toxicity effects and/or apoptotic induction. 5-azacytidine inhibits DNA methylation. It has been preferentially chosen for HEPARG® reprogramming to Hepa-SC stem-like cells after comparative study with Bix 01294, a small molecule known to inhibit the histone H3 methylation. […]

Hepa-RP = experiment: Cholestatic drug screening: alterations of bile saccular canaliculi in Hepa-RP; type: cell-based, human; conditions: Hepa-RP at passage 29 (10 passages with a corticoid-free medium)

cholestatic effect on the bile saccular canaliculi (alteration) (Hepa-RP): constriction
SMILES: CN(C)CCCN1c2ccccc2Sc2ccc(Cl)cc21 [Chlorpromazine]

induction of three distinct CYP450 enzymes activity (CYP450 enzymes): induced
SMILES: C[S+](C)[O-] [DMSO]

The next lines start with the compound.

SMILES: Nc1ncn([C@H]2C[C@H](O)[C@@H](CO)O2)c(=O)n1 [5-aza-2′-deoxycytidine]
inhibition of cell proliferation (Hepa-SC cells): does not inhibit cell proliferation | visible cell toxicity (Hepa-SC cells): does not induce visible cell toxicity

SMILES: COc1cc2nc(N3CCCN(C)CC3)nc(NC3CCN(Cc4ccccc4)CC3)c2cc1OC [Bix 01294]
toxicity compared with 5-azacytidine (HEPARG® cells): much more toxic

SMILES: O=S(=O)(c1cccc2cnccc12)N1CCCNCC1 [Fasudil]
cholestatic effect on the bile saccular canaliculi (alteration) (Hepa-RP): dilatation
